Holding throughout (test): NCI tumour cell line growth inhibition, 48 h
The subject of assay [1] is ACHN renal.
Assay [2] relates to BT-549 breast.
The subject of assay [3] is OVCAR-5 ovarian.
Assay [4] relates to RPMI-8226 leukemia.
In assay [5] the test system is COLO 205 colon.
For assay [6], the system named is HCC-2998 colon.
Assay [7] relates to HCT-116 colon.
Assay [8] concerns OVCAR-4 ovarian.
Assay [9] deals with LOX IMVI melanoma.
Assay [10] concerns HCT-15 colon.
Assay [11] concerns HOP-92 NSCLC.
Assay [12] concerns SR leukemia.
Assay [13] deals with SK-OV-3 ovarian.

12 compounds from PubChem BioAssay (NCI) can be followed below.

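Tested at 5 concentrations; 48 h exposure; 96-well plates; endpoints linearly interpolated, else capped at highest concentration. Here, GI50 denotes the concentration required for 50% inhibition of growth. The concentration for full growth arrest is given as TGI.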

As to `CCOC(=O)C1=C(C)N(Cc2ccc(Cl)cc2Cl)C2(O)C(OC)CC(=O)C3C(=O)N(c4ccccc4)C(=O)C132` (stereo not drawn), the TGI was 15.2 µM in assay [1]; 5.61 µM in [2]; 28.5 µM in assay [3]; 8.61 µM in assay [4]; 13.4 µM in assay [5]; 5.29 µM in assay [6]. Also, the TGI in [7] was 4.12 µM; in assay [8] it was 8.05 µM; in [9] it was 2.23 µM; in assay [10] it was 2.64 µM; in assay [11], 7.95 µM.

As to `C[C@@H]1O[C@@H]2OCC[C@@H]2C2=C1C(=O)c1ccccc1C2=O`, the TGI is 28.6 µM in assay [1]; 4.3 µM in assay [3]; 30.9 µM in [4]; 28.1 µM in assay [12]; 51.3 µM in [5]; 89.9 µM in assay [13]. Moreover, the TGI in assay [6] was 35.4 µM; in assay [8], 16.4 µM; in assay [9] it was 5.65 µM; in [10] it was 44.5 µM; in assay [11], 18.9 µM.

For the compound `Cc1ccc(NCCN(C)CC(C)O)c2c(=O)c3ccc(Cl)cc3sc12` (stereo not drawn), the GI50 was 5.14 µM in assay [2], 3 µM in [3], 3.19 µM in assay [13] and 8.47 µM in [8]. Moreover, the TGI in assay [2] is over 100 µM; in assay [3], over 100 µM; in [13] it was over 100 µM; in [8], 81.8 µM.

As for `N=c1nc(N)nc(N)n1-c1ccc(S(N)(=O)=O)cc1`, the TGI in assay [1], in assay [2], in assay [3], in [12], in assay [7] and in assay [8] was over 100 µM each time. For the same compound, the TGI in assay [9], in assay [10] and in assay [11] was over 100 µM throughout.

On to `CC(=O)NC1C(OCc2ccccc2)OC(CO)C(O)C1OCC(=O)NC(C)C(=O)NC(CCC(=O)OCCNC(=O)c1cccc2cc3ccccc3nc12)C(N)=O` (stereo not drawn), for which the TGI in [1] is 39.3 µM; in assay [2] it was 45.8 µM; in assay [3], 69.3 µM; in [4] it was 19.3 µM; in assay [12], 45.3 µM; in [5], 64.8 µM. Besides, the TGI was 58.2 µM in assay [13]; 40.4 µM in [6]; 31.8 µM in [7]; 48.7 µM in assay [8]; 26.8 µM in [9]; 33.6 µM in assay [10]. The TGI in assay [11] was 59 µM.

As to `CCOC(=O)C1=C(C)N2CCCOC2(C)C(C(=O)OC)C1c1cccc([N+](=O)[O-])c1` (stereo not drawn), the TGI in assay [1], in assay [4], in [12], in assay [5], in assay [6] and in [7] was over 100 µM in each case. In [11], this compound had a TGI of over 100 µM.

In the case of `Cc1c2ccccc2nc2[nH]c3ccncc3c12`, the TGI in [1] was 77.2 µM; in [2], over 100 µM; in assay [3], 95 µM; in assay [4], 77.7 µM; in [12], over 100 µM; in [5], over 100 µM. In addition, the TGI in assay [13] is over 100 µM; in [8] it was over 100 µM; in assay [9] it was 45.4 µM; in [10], over 100 µM; in assay [11] it was 79.6 µM.

Regarding `NC(Cc1ccc2oc3cc(=O)c4ccccc4c-3nc2c1)C(=O)O` (stereo not drawn), the TGI is over 100 µM in [1]; 40.5 µM in assay [2]; over 87.6 µM in [3]; over 88.3 µM in [4]; 67.6 µM in assay [12]; 21.5 µM in assay [5]. For the same compound, the TGI in assay [13] is over 100 µM; in assay [6], 40.2 µM; in assay [7], 76.8 µM; in assay [8], over 88.9 µM; in assay [9] it was 44.1 µM; in assay [10], over 88.3 µM. In [11], the TGI is over 100 µM.

Regarding `CN(C)CCNc1ccc2nnn3c4ccc(Cl)cc4c(=O)c1c23`, the TGI in assay [1] came out at 12.3 µM; in [2], 34.8 µM; in assay [3], 13.3 µM; in [4], 25.4 µM; in assay [12], 10.1 µM; in [5], 10.5 µM. Further, the TGI in [13] came out at 35.1 µM; in [6], 23.4 µM; in assay [7], 14.6 µM; in assay [8], 15.9 µM; in assay [9], 9.66 µM; in assay [10] it was 14.8 µM. In [11], this compound returned a TGI of 14.2 µM.

In the case of `COc1cc2c(cc1O)CCN[C@@]21CS[C@H]2c3c(OC(C)=O)c(C)c4c(c3C(COC1=O)N1C2C2c3c(cc(C)c(OC)c3O)CC([C@@H]1O)N2C)OCO4` (stereo partly drawn), the TGI in assay [1] was 0.0012 µM; in assay [2], 0.00987 µM; in assay [12], 0.00131 µM; in [7], over 0.525 µM; in assay [11] it was 0.064 µM. For the same compound, the GI50 is 0.00246 µM in [13], 0.00305 µM in assay [7], 0.00282 µM in assay [10] and 0.00347 µM in assay [11].

Consider `O=S(=O)(O)c1cc(O)c2c(O)c(N=Nc3ccc(/C=C/c4ccc(N=Nc5c(S(=O)(=O)O)cc6cc(S(=O)(=O)O)cc(O)c6c5O)cc4S(=O)(=O)O)c(S(=O)(=O)O)c3)c(S(=O)(=O)O)cc2c1`, for which the TGI in assay [1], in [3], in assay [4], in [12], in assay [5] and in assay [13] was over 100 µM in each case. Moreover, the TGI in assay [6], in assay [7], in assay [8], in assay [9], in assay [10] and in assay [11] was over 100 µM in each case.

Turning to `Nc1nc(SCCC/C=C/B(O)O)nc2c1ncn2C1OC(CO)C(O)C1O` (stereo not drawn), the TGI in assay [1], in assay [3], in [12], in assay [5], in [13] and in assay [6] was over 243 µM throughout. The TGI in [7], in assay [8], in assay [9], in assay [10] and in assay [11] was over 243 µM throughout.
